The source of these data is patent US20100221773A1, “Nucleic Acids Encoding a Functional Mammalin Purinoreceptor, P2X3, Methods of Production and Use Thereof” (priority 2005, published 2010).

Assay [1] deals with T1, rhesus P2X3 receptor (Macaca mulatta, UniProt A0A1D5QSM7). Description: In vitro electrophysiological assay (whole-cell patch clamp, PatchXpress). As to conditions: for IC50: 100 μM CTP, antagonist preincubation 2 min, whole-cell patch clamp, read-out: IC50, inhibition of CTP-induced currents. It counts as cell-based. How it is done:
(§1) Generation of a Rhesus P2X3 Stable Cell Line—Rhesus P2X3 receptor cDNA was subcloned as a 5′HindIII and 3′XhoI fragment into the expression vector pcDNA5/FRT/TO (Invitrogen). Five micrograms of the rhesus P2X3 expression construct was transfected using Lipofectamine 2000 (Invitrogen) into Flp-in T-Rex—293 cells (Invitrogen) according to the manufacturer's directions. Cells positive for flp-mediated recombination of rhesus P2X3 were selected using 300 μg/ml hygromycin. The stable rhesus P2X3 cell line was propagated in DMEM, 10% FBS, 150 μg/ml hygromycin, 15 μg/ml blasticidin, and 100 units/ml penicillin and 100 μg/ml streptomycin, and maintained at 37° and 95% humidity. Cells were subcultured by treatment with 0.25% trypsin with 0.1% EDTA in HBSS.
In vitro Electrophysiological Assay—Cells expressing rhesus P2X3 receptor were grown to a confluence of 65-85% and induced with 1 μg/ml doxycycline 20 to 32 hours prior to assay. After induction the cells were dissociated with trypsin, centrifuged, and resuspended in bath solution at a cell density of 6×10^6 cells/ml and loaded onto PatchXpress. The bath solution contained 150 mM NaCl, 4 mM KCl, 2 mM CaCl2, 1.2 mM MgCl2, 10 mM HEPES, and 11.1 mM glucose, at pH 7.2. The intracellular solution contained 140 mM K-aspartate, 20 mM NaCl, 5 mM HEPES, 10 mM EGTA, at pH 7.2. Agonist stock solutions were prepared in H2O and diluted in bath solution prior to use. All antagonists were prepared as 10 mM stock solutions in DMSO and diluted in bath solution prior to use. All experiments were performed on cells under the whole-cell patch clamp configuration at room temperature. Up to 16 individual cells could be patch clamped simultaneously on the PatchXpress instrument. A baseline response was established by repeated CTP (100 μM; for 2 sec.) followed by antagonist incubation for 2 min. in the absence of CTP. After antagonist preincubation 100 μM CTP and antagonist were co-administered to determine the inhibitory effect of the antagonist. These steps were then repeated on the same cell with a range of concentrations of the antagonist. A maximum of five concentrations of antagonist were tested on any individual cell. The control P2X3 current amplitude (IP2X3-(control)) was taken as an average of the peak current amplitude from the last two agonist additions prior to incubation with an antagonist. The peak P2X3 current amplitude in the presence of an antagonist (IP2X3-(drug)) was used to calculate the inhibitory effect at each concentration of the antagonist according to the following equation:
% inhibition of P2X3=100*(IP2X3-(control)−IP2X3-(drug))/IP2X3-(control)
Each concentration of an antagonist was tested on at least three independent cells. […]
In general terms: Patch clamp records ionic current or voltage across a cell membrane.

In assay [2] the target is T1, rhesus P2X3 receptor. Description: Intracellular calcium measurement (FLIPR, Fluo-3) to assess antagonist affinity. It counts as cell-based. As to conditions: for IC50: FLIPR, Flp-in T-Rex-293 cells stably expressing rhesus P2X3, antagonist 10 min before agonist αβ-meATP, read-out: IC50, block of αβ-meATP mediated increase in intracellular calcium. How it is done: as §1
Intracellular Calcium Measurement to Assess Antagonist Affinity—A fluorescent imaging plate reader (FLIPR; Molecular Devices) was used to monitor intracellular calcium levels using the calcium-chelating dye Fluo-3 (Molecular Probes). Cells expressing the rhesus P2X3 receptor were plated in the presence of 0.5 to 1 μg/ml doxycycline at a density of 30,000 cells/well in 384-well black-walled plates approximately 20 hours before beginning the assay. Cells were washed with HBSS and dye-loaded in HBSS, 2 mM CaCl2, 0.1% BSA, 0.25 mM probenecid, and 4 μM Fluo-3 for 60 min in the dark at room temperature. Prior to compound additions cells were washed with HBSS. Antagonist affinity was determined by the ability of these compounds to inhibit increases of intracellular calcium elicited by the P2X3 agonist αβ-meATP. Ten minutes prior to adding agonist, the antagonist was added and allowed to incubate at room temperature. Following agonist addition fluorescence data was collected at 5 sec intervals and analyzed based on the increase in peak relative fluorescence units (RFU) compared to the basal fluorescence. Antagonist dose-response data expressed as a response ratio (max RFU/min RFU) were analyzed using GraphPad Prism.
For orientation: A change in cytosolic calcium serves as a functional read-out for many receptors and channels.

By IC50 is commonly meant the concentration at which inhibition is half-maximal. As to `Cc1nc(N=Nc2ccc(S(=O)(=O)O)cc2S(=O)(=O)O)c(COP(=O)(O)O)c(C=O)c1O` [PPADS, pyridoxal-phoshpate-6-azophenyl-2′,4′-disulfonic acid], the 50% inhibitory concentration (IC50) amounted to 2200 nM on rhesus P2X3 receptor [1] (FIG. 3) and 2900 nM at rhesus P2X3 receptor [2]. Moreover, the “rhesus P2X3 inward current elicited by CTP in the presence of antagonist” value at rhesus P2X3 receptor [1] (FIG. 3A, 3 μM PPADS, 100 mM CTP (control) as printed) is reported as “diminished”. Besides, on rhesus P2X3 receptor [2] (FIG. 1, cells incubated with PPADS for 10 min prior to agonist, FLIPR traces), the “blockade of αβ-meATP activated Ca2+ influx” value is recorded as “dose-dependent blockade”.

As for `Cc1ccc(C(=O)Nc2ccc(S(=O)(=O)O)c3cc(S(=O)(=O)O)cc(S(=O)(=O)O)c23)cc1NC(=O)c1cccc(NC(=O)Nc2cccc(C(=O)Nc3cc(C(=O)Nc4ccc(S(=O)(=O)O)c5cc(S(=O)(=O)O)cc(S(=O)(=O)O)c45)ccc3C)c2)c1` [suramin], the IC50 on rhesus P2X3 receptor [1] was 382 nM; on rhesus P2X3 receptor [2], 1500 nM.

One may read the EC50 as the concentration needed to bring the measured effect to its halfway point. In the case of `Nc1ncnc2c1ncn2[C@@H]1O[C@H](COP(=O)(O)CP(=O)(O)OP(=O)(O)O)[C@@H](O)[C@H]1O` [αβ-meATP], the EC50 on rhesus P2X3 receptor [1] (patch-clamp, rhesus P2X3 stable cell line, FIG. 2, read-out: EC50, inward current evoked by agonist) turned out to be 1000 nM.
